# Experimental data as given in PubChem BioAssay AID192 (DTP/NCI, 2004).
# Several values for one entry are separate records, joined by “and”; a condition that tells them apart may be missing. Equal entries are not always repeated. Inconclusive results and toxic doses are left out.
# Tested on: BDF1 mice, B16 melanoma ip, median survival T/C
# Experiment: NCI In Vivo Anticancer Drug Screen. Data for tumor model B16 Melanoma (intraperitoneal) in B6D2F1 (BDF1) mice
# Settings: endpoint: median survival time, higher = longer survival
# Procedure, shortened: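 Survival or tumor size is measured after treatment of tumor-bearing mice and normalised to the vehicle-treated control group.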
# [1] = dose: 25.0 mg/kg/injection, schedule: Q01DX009 (ip), vehicle: saline
# [2] = dose: 50.0 mg/kg/injection, schedule: Q01DX009 (ip), vehicle: saline
# [3] = dose: 100.0 mg/kg/injection, schedule: Q01DX009 (ip), vehicle: saline
# [4] = dose: 200.0 mg/kg/injection, schedule: Q01DX009 (ip), vehicle: saline
# [5] = dose: 50.0 mg/kg/injection, schedule: Q01DX009 (ip), vehicle: Klucel (hydroxypropylcellulose) (HPC)
# [6] = dose: 400.0 mg/kg/injection, schedule: Q01DX009 (ip), vehicle: Klucel (hydroxypropylcellulose) (HPC)
# [7] = dose: 100.0 mg/kg/injection, schedule: Q01DX009 (ip), vehicle: Klucel (hydroxypropylcellulose) (HPC)
# [8] = dose: 200.0 mg/kg/injection, schedule: Q01DX009 (ip), vehicle: Klucel (hydroxypropylcellulose) (HPC)
# [9] = dose: 12.5 mg/kg/injection, schedule: Q01DX009 (ip), vehicle: saline
smiles,measurement,setting,value
CC(C)C1CC2CCC3C(C)(C(=O)O)CCCC3(C)C2CC1CO (stereo not given),T/C,"dose: 50.0 mg/kg/injection, schedule: Q01DX009 (ip), vehicle: saline with Tween-80",99 % of control
same,T/C,"dose: 50.0 mg/kg/injection, schedule: Q04DX003 (ip), vehicle: saline with Tween-80",100 % of control
same,T/C,"dose: 100.0 mg/kg/injection, schedule: Q01DX009 (ip), vehicle: saline with Tween-80",96 % of control
same,T/C,"dose: 100.0 mg/kg/injection, schedule: Q04DX003 (ip), vehicle: saline with Tween-80",97 % of control
same,T/C,"dose: 200.0 mg/kg/injection, schedule: Q01DX009 (ip), vehicle: saline with Tween-80",94 % of control
same,T/C,"dose: 200.0 mg/kg/injection, schedule: Q04DX003 (ip), vehicle: saline with Tween-80",90 % of control
CCCCCC/C=C/C#CCCCCCCCC(=O)O,T/C,"dose: 37.5 mg/kg/injection, schedule: Q01DX009 (ip), vehicle: Klucel (hydroxypropylcellulose) (HPC)",107 % of control
same,T/C,"dose: 75.0 mg/kg/injection, schedule: Q01DX009 (ip), vehicle: Klucel (hydroxypropylcellulose) (HPC)",99 % of control
same,T/C,"dose: 150.0 mg/kg/injection, schedule: Q01DX009 (ip), vehicle: Klucel (hydroxypropylcellulose) (HPC)",101 % of control
CN(C)c1ncnc2c1ncn2C1OC(CO)C(N)C1O (stereo not given),T/C,[1],111 % of control
same,T/C,[2],118 % of control
CNC=O,T/C,[3],99 % of control
same,T/C,[4],110 % of control
Nc1nc(-c2ccccc2N=NN2CCCC2)nc2ccccc12,T/C,"dose: 25.0 mg/kg/injection, schedule: Q01DX009 (ip), vehicle: Klucel (hydroxypropylcellulose) (HPC)",95 % of control
same,T/C,[5],94 % of control
O=C=Nc1ccc(Cc2ccc(N=C=O)cc2)cc1,T/C,[6],123 % of control
CCN(C)CCN(C)CC,T/C,[3],95 % of control
same,T/C,[4],109 % of control
C[NH-].C[NH-].O=C(O)CC(=O)O.[Pt+2],T/C,"dose: 50.0 mg/kg/injection, schedule: Q04DX003 (ip), vehicle: saline",108 % of control
same,T/C,"dose: 100.0 mg/kg/injection, schedule: Q04DX003 (ip), vehicle: saline",162 % of control
same,T/C,"dose: 200.0 mg/kg/injection, schedule: Q04DX003 (ip), vehicle: saline",165 % of control
Oc1ccc(C2C=CCC2)cc1C1C=CCC1 (stereo not given),T/C,[7],99 % of control and 100 % of control
same,T/C,[8],89 % of control and 96 % of control
same,T/C,[6],100 % of control and 107 % of control
C[n+]1c2cc(N)ccc2cc2ccc(N)cc21,T/C,"dose: 1.56 mg/kg/injection, schedule: Q01DX009 (ip), vehicle: saline",107 % of control
same,T/C,"dose: 3.13 mg/kg/injection, schedule: Q01DX009 (ip), vehicle: saline",117 % of control
same,T/C,"dose: 6.25 mg/kg/injection, schedule: Q01DX009 (ip), vehicle: saline",115 % of control
same,T/C,[9],111 % of control
CCC(C)C(=O)OC1C(=O)OC2CC3C(C)=CC(=O)C(O)C3(C)C3C4(O)OCC23C1C(C)C4O (stereo not given),T/C,"dose: 1.4 mg/kg/injection, schedule: Q01DX009 (ip), vehicle: saline",157 % of control
same,T/C,"dose: 2.8 mg/kg/injection, schedule: Q01DX009 (ip), vehicle: saline with Tween-80",153 % of control
Cc1ccc(C)c(NC(=O)Nc2cccc3ccccc23)c1,T/C,"dose: 9.0 mg/kg/injection, schedule: Q01DX009 (ip), vehicle: gum acacia",108 % of control
same,T/C,"dose: 18.0 mg/kg/injection, schedule: Q01DX009 (ip), vehicle: gum acacia",98 % of control
same,T/C,"dose: 37.0 mg/kg/injection, schedule: Q01DX009 (ip), vehicle: gum acacia",91 % of control
O=[N+]([O-])c1cc(F)ccc1O,T/C,"dose: 25.0 mg/kg/injection, schedule: Q01DX009 (ip), vehicle: saline with Tween-80",100 % of control
CC(=O)Nc1cc(NC(C)=O)cc(N(CCCl)CCCl)c1,T/C,"dose: 6.25 mg/kg/injection, schedule: Q01DX009 (ip), vehicle: water",119 % of control
same,T/C,"dose: 12.5 mg/kg/injection, schedule: Q01DX009 (ip), vehicle: water",115 % of control
Cc1cccc(C)c1NC(=O)Nc1ccc2c(c1)OCO2,T/C,"dose: 100.0 mg/kg/injection, schedule: Q04DX003 (ip), vehicle: Klucel (hydroxypropylcellulose) (HPC)",92 % of control
NNCCc1ccccc1,T/C,"dose: 3.12 mg/kg/injection, schedule: Q01DX009 (ip), vehicle: saline",94 % of control
same,T/C,[9],117 % of control
same,T/C,[1],100 % of control
same,T/C,[2],97 % of control
O=C(CCN1CC1)Nc1ccc(NC(=O)CCN2CC2)cc1,T/C,"dose: 5.0 mg/kg/injection, schedule: Q04DX003 (ip), vehicle: Klucel (hydroxypropylcellulose) (HPC)",170 % of control
same,T/C,"dose: 10.0 mg/kg/injection, schedule: Q04DX003 (ip), vehicle: Klucel (hydroxypropylcellulose) (HPC)",173 % of control and 184 % of control
same,T/C,"dose: 20.0 mg/kg/injection, schedule: Q04DX003 (ip), vehicle: Klucel (hydroxypropylcellulose) (HPC)",160 % of control and 175 % of control
same,T/C,"dose: 40.0 mg/kg/injection, schedule: Q04DX003 (ip), vehicle: Klucel (hydroxypropylcellulose) (HPC)",105 % of control
Cc1cc2c(cc1C)NC(C)CC(=O)N2 (stereo not given),T/C,[5],106 % of control
same,T/C,[7],108 % of control
same,T/C,[8],106 % of control
O=[N+]([O-])c1ccc(S(=O)(=O)O)c([N+](=O)[O-])c1.[Ag],T/C,"dose: 12.5 mg/kg/injection, schedule: Q04DX003 (ip), vehicle: DMSO",86 % of control
same,T/C,"dose: 25.0 mg/kg/injection, schedule: Q04DX003 (ip), vehicle: DMSO",86 % of control
